Structures are written as SMILES. Values after ≈ are worked out from the molar mass of the structure shown.

Assay in all cases: MIC test, standard agar dilution method
(In general: In agar dilution, organisms are placed on agar that contains the substance at set levels.)

The subject of experiment [1] is Staphylococcus epidermidis (UC 12084). The experiment is classed as cell-based. As to conditions: UC12084, incubated overnight at 35°C, read-out: Minimum Inhibitory Concentrations (MIC) S. enidermidis.
Experiment [2] has as its system Streptococcus pyogenes (UC 152). As to conditions: UC152, read-out: Minimum Inhibitory Concentrations (MIC) S. pyogenes.
A further experiment relates to Staphylococcus aureus. The settings on record: UC9213, read-out: Minimum Inhibitory Concentrations (MIC) S. aureus.

As to `COC(=O)[C@H]1CN(c2ccc(N3CC(CNC(C)=O)OC3=O)cc2F)CCC1=O` (stereo partly drawn) [Compound No. 34, (S)-1-{4-[5-(acetylamino-methyl)-2-oxo-oxazolidin-3-yl]-2-fluoro-phenyl}-4-oxo-piperidin-3-carboxylic acid methyl ester], the figures for the MIC (in experiment [1]; in experiment [2]; with Staphylococcus aureus) were 4 µg/mL (≈ 9.82 µM), 4 µg/mL (≈ 9.82 µM) and 16 µg/mL (≈ 39.3 µM), respectively.

`CC(=O)NC[C@H]1CN(c2ccc(N3CCC(CO)CC3)c(F)c2)C(=O)O1` [Compound No. 4, (S)-N-{3-[3-fluoro-4-(4-hydroxymethyl-piperidin-1-yl)-phenyl]-2-oxo-oxazolidin-5-ylmethyl}-acetamide]: the MIC in experiment [1] amounted to 2 µg/mL (≈ 5.47 µM); in experiment [2], 2 µg/mL (≈ 5.47 µM); with Staphylococcus aureus, 8 µg/mL (≈ 21.9 µM).

For `CC(=O)NC[C@H]1CN(c2ccc(N3CCC(=NOCC(O)CO)CC3)c(F)c2)C(=O)O1` (stereo partly drawn) [Compound No. 62, (S)-N-(3-{4-[4-(2,3-dihydroxy-propoxyimino)-piperidin-1-yl]-3-fluorophenyl}-2-oxo-oxazolidin-5-ylmethyl)-acetamide], the MIC in experiment [1] is 1 µg/mL (≈ 2.28 µM); in experiment [2], 2 µg/mL (≈ 4.56 µM); with Staphylococcus aureus, 8 µg/mL (≈ 18.2 µM).

Consider `CC(=O)NC[C@H]1CN(c2ccc(N3CCC(=NNC(=N)N)CC3)c(F)c2)C(=O)O1` [compound 42, (S)-N-{3-[3-fluoro-4-(4-amidinohydrazono-piperidin-1-yl)-phenyl]-2-oxo-oxazolidin-5-ylmethyl}-acetamide], for which the MIC in experiment [1] came to 2 µg/mL (≈ 4.93 µM); in experiment [2], 0.5 µg/mL (≈ 1.23 µM); in the experiment on Staphylococcus aureus, 8 µg/mL (≈ 19.7 µM).

For `CC(=O)NC[C@H]1CN(c2ccc(N3CCC(=Nn4cnnc4)CC3)c(F)c2)C(=O)O1` [compound 51, (S)-N-(3-{3-fluoro-4-[4-([1,2,4]triazol-4-ylimino)-piperidin-1-yl]-phenyl}-2-oxo-oxazolidin-5-ylmethyl)-acetamide], the MIC in experiment [1] worked out at 1 µg/mL (≈ 2.41 µM); in experiment [2], 2 µg/mL (≈ 4.81 µM); in the experiment with Staphylococcus aureus, 4 µg/mL (≈ 9.63 µM).

As for `CC(=O)NC[C@H]1CN(c2ccc(N3CCC(=O)C(CO)C3)c(F)c2)C(=O)O1` (stereo partly drawn) [Compound No. 37, (S)-N-{3-[3-fluoro-4-(3-hydroxymethyl-4-oxo-piperidin-1-yl)-phenyl]-2-oxo-oxazolidin-5-ylmethyl}-acetamide], the values for the MIC (in experiment [1]; in experiment [2]; in the experiment on Staphylococcus aureus) were 2 µg/mL (≈ 5.27 µM), 2 µg/mL (≈ 5.27 µM) and 8 µg/mL (≈ 21.1 µM), respectively.

On to `CC(=O)NC[C@H]1CN(c2ccc(N3CCC(NC(=O)CO)CC3)c(F)c2)C(=O)O1` [compound 10, (S)-N-(1-{4-[5-(acetylamino-methyl)-2-oxo-oxazolidin-3-yl]-2-fluoro-phenyl}-piperidin-4-yl)-2-hydroxy-acetamide], for which the MIC in experiment [1] worked out at 2 µg/mL (≈ 4.9 µM); in experiment [2] it was 2 µg/mL (≈ 4.9 µM); with Staphylococcus aureus it was 16 µg/mL (≈ 39.2 µM).

Turning to `COCOCCON=C1CCN(c2ccc(N3C[C@H](CNC(C)=O)OC3=O)cc2F)CC1` [compound 53, (S)-N-(3-{3-fluoro-4-[4-(2-methoxymethoxy-ethoxyimino)-piperidin-1-yl]-phenyl}-2-oxo-oxazolidin-5-ylmethyl)-acetamide], the MIC in experiment [1] amounted to 2 µg/mL (≈ 4.42 µM); in experiment [2], 4 µg/mL (≈ 8.84 µM); in the experiment with Staphylococcus aureus, 16 µg/mL (≈ 35.4 µM).

With `CC(=O)NC[C@H]1CN(c2ccc(N3CCC(NC(C)=O)CC3)c(F)c2)C(=O)O1` [compound 9, (S)-N-{3-[4-(4-acetylamino-piperidin-1-yl)-3-fluoro-phenyl]-2-oxo-oxazolidin-5-ylmethyl}-acetamide], the MIC in experiment [1] was 2 µg/mL (≈ 5.1 µM); in experiment [2], 4 µg/mL (≈ 10.2 µM); with Staphylococcus aureus it was 16 µg/mL (≈ 40.8 µM).

Take `COCON=C1CCN(c2ccc(N3C[C@H](CNC(C)=O)OC3=O)cc2F)CC1` [compound 60, (S)-N-{3-[3-fluoro-4-(4-methoxymethoxyimino-piperidin-1-yl)-phenyl]-2-oxo-oxazolidin-5-ylmethyl}-acetamide]: the MIC in experiment [1] was 2 µg/mL (≈ 4.9 µM); in experiment [2], 2 µg/mL (≈ 4.9 µM); in the experiment on Staphylococcus aureus it was 8 µg/mL (≈ 19.6 µM).

In the case of `CC(=O)NC[C@H]1CN(c2ccc(N3CCC(NC(=O)OCOC(C)=O)CC3)c(F)c2)C(=O)O1` [compound 65, (S)-N-(3-{4-[4-(acetoxy-methoxy-carbonylamino)-piperidin-1-yl]-3-fluorophenyl}-2-oxo-oxazolidin-5-ylmethyl)-acetamide], the MIC in experiment [1] stood at 1 µg/mL (≈ 2.14 µM); in experiment [2], 0.5 µg/mL (≈ 1.07 µM); in the experiment with Staphylococcus aureus, 8 µg/mL (≈ 17.2 µM).

Turning to `CC(=O)NC[C@H]1CN(c2ccc(N3CCC(CC4(C)OCCO4)CC3)c(F)c2)C(=O)O1` [Compound No. 32, (S)-N-(3-{3-fluoro-4-[4-(2-methyl-[1,3]dioxolan-2-ylmethyl)-piperidin-1-yl]-phenyl}-2-oxo-oxazolidin-5-ylmethyl)-acetamide], the MIC in experiment [1] stood at 4 µg/mL (≈ 9.18 µM); in experiment [2] it was 4 µg/mL (≈ 9.18 µM); in the experiment on Staphylococcus aureus, 16 µg/mL (≈ 36.7 µM).

Turning to `CC(=O)NC[C@H]1CN(c2ccc(N3CCC(N)CC3)c(F)c2)C(=O)O1` [Compound No. 6, (S)-N-{3-[4-(4-amino-piperidin-1-yl)-3-fluoro-phenyl]-2-oxo-oxazolidin-5-ylmethyl}-acetamide], the MIC is 32 µg/mL (≈ 91.3 µM) in experiment [1], 1 µg/mL (≈ 2.85 µM) in experiment [2] and more than 64 µg/mL in the experiment on Staphylococcus aureus.

For the molecule `CONC1CCN(c2ccc(N3C[C@H](CNC(C)=O)OC3=O)cc2F)CC1` [Compound No. 59, (S)-N-{3-[3-fluoro-4-(4-methoxyamino-piperidin-1-yl)-phenyl]-2-oxo-oxazolidin-5-ylmethyl}-acetamide], the MIC in experiment [1] came out at 2 µg/mL (≈ 5.26 µM); in experiment [2] it was 4 µg/mL (≈ 10.5 µM); in the experiment on Staphylococcus aureus it was 4 µg/mL (≈ 10.5 µM).

Turning to `CC(=O)NC[C@H]1CN(c2ccc(N3CCC(Nc4nccs4)CC3)c(F)c2)C(=O)O1` [Compound No. 63, (S)-N-(3-{3-fluoro-4-[4-(thiazol-2-ylamino)-piperidin-1-yl]-phenyl}-2-oxo-oxazolidin-5-ylmethyl)-acetamide], the MIC in experiment [1] is 2 µg/mL (≈ 4.61 µM); in experiment [2] it was 2 µg/mL (≈ 4.61 µM); in the experiment with Staphylococcus aureus it was 16 µg/mL (≈ 36.9 µM).

In the case of `CC(=O)NC[C@H]1CN(c2ccc(N3CCC4(CC3)OCC(CO)O4)c(F)c2)C(=O)O1` (stereo partly drawn) [Compound No. 52, (S)-N-{3-[3-fluoro-4-(2-hydroxymethyl-1,4-dioxa-8-aza-spiro[4.5]dec-8-yl)-phenyl]-2-oxo-oxazolidin-5-ylmethyl}-acetamide], the MIC is 2 µg/mL (≈ 4.72 µM) in experiment [1], 4 µg/mL (≈ 9.45 µM) in experiment [2] and 16 µg/mL (≈ 37.8 µM) in the experiment on Staphylococcus aureus.

In the case of `CC(=O)NC[C@H]1CN(c2ccc(N3CCC(=NN4CCN(CCO)CC4)CC3)c(F)c2)C(=O)O1` [compound 49, (S)-N-[3-(3-fluoro-4-{4-[4-(2-hydroxy-ethyl)-piperazin-1-ylimino]-piperidin-1-yl)-phenyl)-2-oxo-oxazolidin-5-ylmethyl]-acetamide], the MIC in experiment [1] worked out at 0.5 µg/mL (≈ 1.05 µM); in experiment [2] it was 1 µg/mL (≈ 2.1 µM); in the experiment with Staphylococcus aureus it was 4 µg/mL (≈ 8.39 µM).

Regarding `CC(=O)NC[C@H]1CN(c2ccc(N3CCC(C4(C)OCCO4)CC3)c(F)c2)C(=O)O1` [Compound No. 35, (S)-N-(3-{3-fluoro-4-[4-(2-methyl-[1,3]dioxolan-2-yl)-piperidin-1-yl]-phenyl}-2-oxo-oxazolidin-5-ylmethyl)-acetamide], the MIC in experiment [1] came out at 2 µg/mL (≈ 4.75 µM); in experiment [2], 2 µg/mL (≈ 4.75 µM); in the experiment on Staphylococcus aureus, 8 µg/mL (≈ 19 µM).

As for `COCCNC1CCN(c2ccc(N3C[C@H](CNC(C)=O)OC3=O)cc2F)CC1` [compound 64, (S)-N-(3-{3-fluoro-4-[4-(2-methoxy-ethylamino)-piperidin-1-yl]-phenyl}-2-oxo-oxazolidin-5-ylmethyl)-acetamide], the figures for the MIC (in experiment [1]; in experiment [2]; with Staphylococcus aureus) were 2 µg/mL (≈ 4.9 µM), 1 µg/mL (≈ 2.45 µM) and 32 µg/mL (≈ 78.3 µM), respectively.

Turning to `CC(=O)NC[C@H]1CN(c2ccc(N3CCC(=NOC(=O)COC(C)=O)CC3)c(F)c2)C(=O)O1` [compound 43, (S)-N-{3-[3-fluoro-4-(4-acetoxyacetoxyimino-piperidin-1-yl)-phenyl]-2-oxo-oxazolidin-5-ylmethyl}-acetamide], the MIC was 0.5 µg/mL (≈ 1.08 µM) in experiment [1], 1 µg/mL (≈ 2.15 µM) in experiment [2] and 4 µg/mL (≈ 8.61 µM) with Staphylococcus aureus.

Regarding `CC(=O)CC1CCN(c2ccc(N3C[C@H](CNC(C)=O)OC3=O)cc2F)CC1` [compound 33, (S)-N-(3-{3-fluoro-4-[4-(2-oxo-propyl)-piperidin-1-yl]-phenyl}-2-oxo-oxazolidin-5-ylmethyl)-acetamide], the MIC in experiment [1] was determined as 2 µg/mL (≈ 5.11 µM); in experiment [2], 2 µg/mL (≈ 5.11 µM); in the experiment with Staphylococcus aureus, 8 µg/mL (≈ 20.4 µM).

`CCOC(=O)CC(=O)NN=C1CCN(c2ccc(N3C[C@H](CNC(C)=O)OC3=O)cc2F)CC1` [compound 56, (S)-(1-{4-[5-(acetylamino-methyl)-2-oxo-oxazolidin-3-yl]-2-fluorophenyl}-piperidin-4-ylidenehydrazinocarbonyl)-acetic acid ethyl ester]: the MIC in experiment [1] came out at 1 µg/mL (≈ 2.09 µM); in experiment [2] it was 2 µg/mL (≈ 4.19 µM); with Staphylococcus aureus it was 4 µg/mL (≈ 8.38 µM).

`CC(=O)NC[C@H]1CN(c2ccc(N3CCC(=NN)CC3)c(F)c2)C(=O)O1` [compound 46, (S)-N-{3-[3-fluoro-4-(4-hydrazono-piperidin-1-yl)-phenyl]-2-oxo-oxazolidin-5-ylmethyl}-acetamide]: the values for the MIC (in experiment [1]; in experiment [2]; with Staphylococcus aureus) were 0.5 µg/mL (≈ 1.38 µM), 2 µg/mL (≈ 5.5 µM) and 2 µg/mL (≈ 5.5 µM), respectively.

In the case of `COC(=O)ON=C1CCN(c2ccc(N3C[C@H](CNC(C)=O)OC3=O)cc2F)CC1` [compound 38, (S)-N-{3-[3-fluoro-4-(4-methoxycarbonyloxyimino-piperidin-1-yl)-phenyl]-2-oxo-oxazolidin-5-ylmethyl}-acetamide], the MIC in experiment [1] amounted to 0.5 µg/mL (≈ 1.18 µM); in experiment [2], 1 µg/mL (≈ 2.37 µM); in the experiment on Staphylococcus aureus, 2 µg/mL (≈ 4.73 µM).

For `CC(=O)NC[C@H]1CN(c2ccc(N3CCC(=NNC(N)=O)CC3)c(F)c2)C(=O)O1` [compound 39, (S)-N-{3-[3-fluoro-4-(4-semicarbazono-piperidin-1-yl)-phenyl]-2-oxo-oxazolidin-5-ylmethyl}-acetamide], the MIC was 0.5 µg/mL (≈ 1.23 µM) in experiment [1], 2 µg/mL (≈ 4.92 µM) in experiment [2] and 2 µg/mL (≈ 4.92 µM) in the experiment on Staphylococcus aureus.

The record behind these values is EP0750618B1, “OXAZOLIDINONE DERIVATIVES AND PHARMACEUTICAL COMPOSITIONS CONTAINING THEM” (priority 1994, dated 1995).
